The subject of one assay is HCT-116. Briefly: Antiproliferative activity against human HCT116 cells expressing wild type p53 assessed as decrease in cell viability after 72 hrs by MTT assay. The settings on record: HCT-116, 72 h.
In assay [1] the target is Ubiquitin carboxyl-terminal hydrolase 7 (Homo sapiens, UniProt Q93009). Briefly: Inhibition of USP7 (unknown origin) using Ub-Rho as substrate preincubated for 30 mins followed by substrate addition and subsequent incubation in dark for 3 hrs by fluorescence assay.
Ubiquitin carboxyl-terminal hydrolase 7, sequence (Q93009 whole entry): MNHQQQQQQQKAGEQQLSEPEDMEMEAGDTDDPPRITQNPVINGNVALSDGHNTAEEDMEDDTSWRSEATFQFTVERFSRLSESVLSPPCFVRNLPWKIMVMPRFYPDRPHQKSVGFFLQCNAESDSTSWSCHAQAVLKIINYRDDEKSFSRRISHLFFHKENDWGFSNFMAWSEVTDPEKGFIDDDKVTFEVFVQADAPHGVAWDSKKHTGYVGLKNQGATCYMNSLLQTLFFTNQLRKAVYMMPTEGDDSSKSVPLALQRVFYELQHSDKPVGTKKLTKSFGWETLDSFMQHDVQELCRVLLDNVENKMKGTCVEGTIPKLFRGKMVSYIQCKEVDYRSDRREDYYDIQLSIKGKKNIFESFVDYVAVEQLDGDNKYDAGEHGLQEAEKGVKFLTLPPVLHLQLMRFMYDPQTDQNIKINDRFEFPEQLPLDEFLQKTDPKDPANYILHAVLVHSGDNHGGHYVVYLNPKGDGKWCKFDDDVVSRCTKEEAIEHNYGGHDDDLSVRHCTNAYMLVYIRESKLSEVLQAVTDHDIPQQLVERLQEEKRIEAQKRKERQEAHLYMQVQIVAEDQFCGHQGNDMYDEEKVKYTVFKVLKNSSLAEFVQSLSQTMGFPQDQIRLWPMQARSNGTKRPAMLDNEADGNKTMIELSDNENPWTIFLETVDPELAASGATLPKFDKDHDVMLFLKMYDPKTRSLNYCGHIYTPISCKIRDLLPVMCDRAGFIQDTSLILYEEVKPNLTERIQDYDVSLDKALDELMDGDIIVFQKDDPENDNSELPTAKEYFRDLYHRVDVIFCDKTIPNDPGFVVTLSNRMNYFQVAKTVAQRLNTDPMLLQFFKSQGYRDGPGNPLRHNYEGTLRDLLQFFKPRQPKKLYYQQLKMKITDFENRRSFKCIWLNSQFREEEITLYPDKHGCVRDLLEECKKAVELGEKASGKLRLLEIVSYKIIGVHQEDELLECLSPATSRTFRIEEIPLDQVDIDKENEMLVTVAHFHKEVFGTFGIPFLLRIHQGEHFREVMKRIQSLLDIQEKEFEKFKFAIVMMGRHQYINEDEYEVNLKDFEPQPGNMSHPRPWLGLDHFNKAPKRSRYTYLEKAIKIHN
The next assay has as its system NCI-H1299. Briefly: Antiproliferative activity against p53 deficient human NCI-H1299 cells assessed as decrease in cell viability after 72 hrs by MTT assay. The class given is functional, cell-based. The settings on record: NCI-H1299, 72 h.
Assay [2] can be described thus: Antiproliferative activity against human […] cells expressing p53 mutant assessed as decrease in cell viability after 72 hrs by MTT assay. Type of assay: functional, cell-based.

Regarding `CC(=O)c1ncc(Sc2cccc(Cl)c2Cl)s1`, the IC50 (in the assay with HCT-116; in assay [1]) was > 50 µM in each case.
Turning to `CC(O)c1nc([N+](=O)[O-])c(Sc2c(Cl)cncc2Cl)s1` (stereo unspecified), the IC50 in the assay on HCT-116 was 18.6 µM; in assay [1] it was 6.95 µM.
Consider `CC(=O)c1nc([N+](=O)[O-])c(Sc2c(Cl)cccc2Cl)s1`, for which the figures for the IC50 (with HCT-116; in assay [1]) were 19.3 µM and 4.49 µM, respectively.
In the case of `O=C(NCc1ccccc1)c1nc([N+](=O)[O-])c(Sc2c(Cl)cncc2Cl)s1`, the IC50 came to 13.5 µM in the assay with HCT-116 and 4.21 µM in assay [1].
Turning to `CC(=O)c1nc([N+](=O)[O-])c(Sc2cccc(Cl)c2Cl)s1`, the IC50 in the assay on HCT-116 came to 9.29 µM; in assay [1], 9.93 µM.
With `CC(=O)c1nc([N+](=O)[O-])c(Sc2ccc(Cl)c(Cl)c2)s1`, the IC50 in the assay on HCT-116 was found to be 16.4 µM; in assay [1] it was 18 µM.
Turning to `CC(=O)OC(C)c1nc([N+](=O)[O-])c(Sc2c(Cl)cncc2Cl)s1` (stereo unspecified), the IC50 with HCT-116 was 24.8 µM; in assay [1], > 50 µM.
`CC(=O)c1ncc(Sc2ccc(Cl)c(Cl)c2)s1`: the 50% inhibitory concentration (IC50) (with HCT-116; in assay [1]) was > 50 µM in each case.
For the compound `O=C(NCc1ccc(F)cc1)c1nc([N+](=O)[O-])c(Sc2c(Cl)cncc2Cl)s1`, the IC50 came out at 11.2 µM in the assay with HCT-116 and 2.65 µM in assay [1].
Turning to `CC(NCc1ccccc1)c1nc([N+](=O)[O-])c(Sc2c(Cl)cncc2Cl)s1` (stereo unspecified), the IC50 in the assay with HCT-116 was 11.8 µM; in assay [1] it was 26.8 µM.
Turning to `CC(=O)c1nc([N+](=O)[O-])c(NCc2ccc(Cl)c(Cl)c2)s1`, the IC50 (in the assay on HCT-116; in assay [1]) was > 50 µM each time.
Regarding `COc1ccc(Sc2sc(C(C)=O)nc2[N+](=O)[O-])cc1OC`, the figures for the IC50 (in the assay on HCT-116; in assay [1]) were 24 µM and > 50 µM, respectively.
Taken in the same sequence, the figures for `Cc1ccc(CNC(=O)c2nc([N+](=O)[O-])c(Sc3c(Cl)cncc3Cl)s2)cc1` were 6.64 µM and 3.65 µM.
As for `O=C(Nc1ccccc1)c1nc([N+](=O)[O-])c(Sc2c(Cl)cncc2Cl)s1`, the IC50 in the assay with HCT-116 turned out to be 12.4 µM; in assay [1], 40.5 µM.
In the case of `CC(=O)c1nc([N+](=O)[O-])c(Sc2c(Cl)cncc2Cl)s1`, the 50% inhibitory concentration (IC50) in the assay on HCT-116 came out at 8.45 µM; in the assay with NCI-H1299, 6.21 µM; in assay [1], 0.67 µM; in assay [2], 11 µM.
In the case of `CC(=O)c1nc([N+](=O)[O-])c(Sc2ccc(Cl)cc2Cl)s1`, the figures for the IC50 (in the assay with HCT-116; in assay [1]) were 12.5 µM and 16.8 µM, respectively.
As to `O=C(NCc1cccc(F)c1)c1nc([N+](=O)[O-])c(Sc2c(Cl)cncc2Cl)s1`, the IC50 was determined as 6.36 µM with HCT-116, 3.68 µM in the assay with NCI-H1299, 1.35 µM in assay [1] and 6.11 µM in assay [2].
As for `CC(OC(=O)c1ccccc1)c1nc([N+](=O)[O-])c(Sc2c(Cl)cncc2Cl)s1` (stereo unspecified), the values for the IC50 (in the assay on HCT-116; in assay [1]) were 12 µM and > 50 µM, respectively.
In the case of `CCCC(=O)OC(C)c1nc([N+](=O)[O-])c(Sc2c(Cl)cncc2Cl)s1` (stereo unspecified), the values for the IC50 (in the assay with HCT-116; in assay [1]) were 11.7 µM and 4.49 µM, respectively.
Regarding `COc1cccc(Sc2sc(C(C)=O)nc2[N+](=O)[O-])c1`, the IC50 with HCT-116 was 17.3 µM; in assay [1], > 50 µM.
Taken in the same sequence, the figures for `CC(=O)c1nc([N+](=O)[O-])c(Sc2ccc(F)cc2F)s1` were 10.2 µM and 6.12 µM.
